From patent publication US12643912B2, “Macrocyclic compounds, a process for their preparation and pharmaceutical compositions containing them” (LES LABORATOIRES SERVIER, priority 2020, dated 2026)
Read-outs that look alike come from different tables or passages of the source.

Tests used:
Keap1 (A321-C624) (h) = biological target: T1, Keap1 (A321-C624) (h) (Homo sapiens, UniProt Q14145); test: Surface Plasmon Resonance binding assay to Kelch domain of KEAP1; conditions: Biacore T200, 25° C., immobilized His-Thromb-KEAP1(A321-C624), single cycle kinetics, KD=kd/ka from 1:1 fit; read-out: Keap1 (A321-C624) (h) direct/SPR (KD)
T1 construct: His-Thromb-KEAP1(A321-C624) acquired from Novalix (batch PU-P01) was immobilized covalently by amine coupling; His tag (N); thrombin cleavage site (Thromb) (N); purchased Novalix batch PU-P01
Procedure: EXAMPLE 85: SURFACE PLASMON RESONANCE
Binding assay to Kelch domain of KEAP1 was performed by Surface Plasmon Resonance (SPR) on a Biacore T200 (GE Healthcare) at 25° C. using CM5 chip. His-Thromb-KEAP1(A321-C624) acquired from Novalix (batch PU-P01) was immobilized covalently by amine coupling using standard wizard protocol, at a concentration of 20 μg/mL in sodium acetate pH 5.5. The ligand was captured until 1250 RU was reached. Amine blank is used as the reference flow cell. Binding of analyte to the ligand was monitored in real time with associations of 180 seconds and a dissociation of 720 seconds. Association (ka) and dissociation (kd) rates were fitted with a simple 1:1 kinetic interaction model using Biacore T200 Evaluation Software (GE Healthcare). The equilibrium constant (KD=kd/ka) was calculated from these fitted parameters. […] The Biacore binding assay was performed with a flowrate of 50 μL/min using a running buffer of 10 mM HEPES (pH 7.4), 150 mM NaCl, 3 mM EDTA, 1 mM TCEP, 0.05% P20,5% DMSO. Double subtraction was used by subtracting both reference flow cell and previous blank cycle (with running buffer). Solvent correction was applied to correct DMSO bulk effect.

[1] = tested on: Nrf2 (Keap1-NRF2 nuclear translocation); test: U2OS translocation assay (PathHunter U2OS Keap1-NRF2 Nuclear Translocation Cell Line); format: cell-based
How it was run: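 PathHunter U2OS line expressing Nrf2-enzyme-donor fusion and nuclear acceptor enzyme, 7 500 cells/well in Opti-MEM, 1% FBS. Compounds incubated 3 h at 37° C. Luminescence after 60 min with detection reagent, normalized between 1% DMSO and 10 μM andrographolide.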

[2] = Homo sapiens, U2OS, 3 h, read-out: CELLULAR U2OS EC50 (nM), U2OS Keap1-NRF2 nuclear translocation cells, 3 h incubation, luminescence, normalized between 1% DMSO and 10 μM andrographolide
[3] = read-out: CELLULAR U2OS EC50, U2OS Keap1-NRF2 nuclear translocation cells, 3 h incubation, luminescence, normalized between 1% DMSO and 10 μM andrographolide

T1 sequence (Q14145 321-624): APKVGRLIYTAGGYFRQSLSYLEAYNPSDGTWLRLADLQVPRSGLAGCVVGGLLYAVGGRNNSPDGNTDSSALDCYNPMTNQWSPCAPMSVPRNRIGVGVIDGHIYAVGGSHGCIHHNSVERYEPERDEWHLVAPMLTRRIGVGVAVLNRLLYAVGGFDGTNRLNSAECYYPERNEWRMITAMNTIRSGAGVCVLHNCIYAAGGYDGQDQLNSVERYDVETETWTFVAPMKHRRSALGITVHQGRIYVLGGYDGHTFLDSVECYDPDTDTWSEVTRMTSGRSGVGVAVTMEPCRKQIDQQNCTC

SMILES | Kd (Keap1 (A321-C624) (h)) | EC50 [1, 2] | EC50 [1, 3]
COc1cc2cc(c1OC)CN1Cc3cc(ccc3OS1(=O)=O)OCCCCn1nnc3c(C)c(ccc31)C2CC(=O)O (single isomer, unassigned) [Example 35a, [4,5-Dimethoxy-31-methyl-27,27-dioxo-21,26-dioxa-27λ^6-thia-1,14,15,16-tetraazahexacyclo[20.5.3.1^3,70.1^9,130.0^12,160.0^25,29]dotriaconta-3(32),4,6,9(31),10,12,14,22,24,29-decaen-8-yl]acetic acid] | 33600 nM | > 3160 nM | –
Cc1c2ccc3c1nnn3CCCCOc1ccc3c(c1)CN(Cc1cc(cc(C(F)(F)F)c1)C2CC(=O)O)S(=O)(=O)O3 (single isomer, unassigned) [Example 12a, [31-Methyl-27,27-dioxo-5-(trifluoromethyl)-21,26-dioxa-27λ^6-thia-1,14,15,16-tetraazahexacyclo[20.5.3.1^3,70.1^9,130.0^12,160.0^25,29]dotriaconta-3(32),4,6,9(31),10,12,14,22,24,29-decaen-8-yl]acetic acid] | 3070 nM | 3160 nM | –
Cc1ccc2cc1[C@@H](C)N1Cc3cc(ccc3OS1(=O)=O)OCCCCCCn1nnc3c(C)c(ccc31)[C@H]2CC(=O)O [Example 19b, [(2R,8S)-2,4,33-trimethyl-29,29-dioxo-23,28-dioxa-29λ^6-thia-1,14,15,16-tetraazahexacyclo[22.5.3.1^3,70.1^9,130.0^12,160.0^27,31]tetratriaconta-3(34),4,6,9(33),10,12,14,24,26,31-decaen-8-yl]acetic acid] | 0.646 nM | 2.76 nM | –
COc1ccc2cc1[C@@H](C)N1Cc3cc(ccc3OS1(=O)=O)OCCCCCCn1nnc3c(C)c(ccc31)[C@@H]2CC(=O)O [Example 40b, [(2R,8R)-4-methoxy-2,33-dimethyl-29,29-dioxo-23,28-dioxa-29λ^6-thia-1,14,15,16-tetraazahexacyclo[22.5.3.1^3,70.1^9,130.0^12,160.0^27,31]tetratriaconta-3(34),4,6,9(33),10,12,14,24,26,31-decaen-8-yl]acetic acid] | 22.3 nM | 353 nM | –
Cc1c2ccc3c1nnn3CCCCOc1ccc3c(c1)CN(Cc1cc(cc(C(F)(F)F)c1)C2CC(=O)O)S(=O)(=O)O3 (single isomer, unassigned) [Example 12b, [31-Methyl-27,27-dioxo-5-(trifluoromethyl)-21,26-dioxa-27λ^6-thia-1,14,15,16-tetraazahexacyclo[20.5.3.1^3,70.1^9,130.0^12,160.0^25,29]dotriaconta-3(32),4,6,9(31),10,12,14,22,24,29-decaen-8-yl]acetic acid] | 2920 nM | – | > 3160 nM
Cc1ccc2cc1CN1Cc3cc(ccc3OS1(=O)=O)OCCCCCOc1cc(c(C)c3nnn(C)c13)C2CC(=O)O (single isomer, unassigned) [Example 73b, [4,10,14-Trimethyl-29,29-dioxo-17,23,28-trioxa-29λ^6-thia-1,12,13,14-tetraazahexacyclo[22.5.3.1^3,70.1^9,160.0^11,150.0^27,31]tetratriaconta-3(34),4,6,9(33),10,12,15,24,26,31-decaen-8-yl]acetic acid] | 17.6 nM | – | 707 nM
Cc1ccc2cc1CN1Cc3cc(ccc3N(C)S1(=O)=O)OCCCCn1nnc3c(C)c(ccc31)C2CC(=O)O (single isomer, unassigned) [Example 39b, [4,26,31-Trimethyl-27,27-dioxo-21-oxa-27λ^6-thia-1,14,15,16,26-pentaazahexacyclo[20.5.3.1^3,70.1^9,130.0^12,160.0^25,29]dotriaconta-3(32),4,6,9(31),10,12,14,22,24,29-decaen-8-yl]acetic acid] | 0.685 nM | – | 79.5 nM
COc1ccc2cc1CN1Cc3cc(ccc3OS1(=O)=O)OCc1ccccc1OCCCCn1nnc3c(C)c(ccc31)C2CC(=O)O (single isomer, unassigned) [Example 53b, [4-Methoxy-39-methyl-35,35-dioxo-21,29,34-trioxa-35λ^6-thia-1,14,15,16-tetraazaheptacyclo[28.5.3.1^3,70.1^9,130.0^12,160.0^22,270.0^33,37]tetraconta-3(40),4,6,9(39),10,12,14,22,24,26,30,32,37-tridecaen-8-yl]acetic acid] | 176 nM | – | 899 nM
COc1cc2cc(c1Cl)CN1Cc3cc(ccc3OS1(=O)=O)OCCCCn1nnc3c(C)c(ccc31)C2CC(=O)O (single isomer, unassigned) [Example 38b, [4-Chloro-5-methoxy-31-methyl-27,27-dioxo-21,26-dioxa-27λ^6-thia-1,14,15,16-tetraazahexacyclo[20.5.3.1^3,70.1^9,130.0^12,160.0^25,29]dotriaconta-3(32),4,6,9(31),10,12,14,22,24,29-decaen-8-yl]acetic acid] | 604 nM | > 3160 nM | –
Cc1ccc2cc1[C@@H](C)N1Cc3cc(ccc3OS1(=O)=O)OCCN(C)CCCn1nnc3c(C)c(ccc31)[C@@H]2CC(=O)O [Example 34b, [(2R,8R)-2,4,20,33-tetramethyl-29,29-dioxo-23,28-dioxa-29λ^6-thia-1,14,15,16,20-pentaazahexacyclo[22.5.3.1^3,70.1^9,130.0^12,160.0^27,31]tetratriaconta-3(34),4,6,9(33),10,12,14,24,26,31-decaen-8-yl]acetic acid] | 1.85 nM | 31.1 nM | –
COc1ccc2cc1[C@@H](C)N1Cc3cc(ccc3OS1(=O)=O)OCCCCn1nnc3c(C)c(ccc31)[C@@H]2CC(=O)O [Example 28a, [(2R,8R)-4-Methoxy-2,31-dimethyl-27,27-dioxo-21,26-dioxa-27λ^6-thia-1,14,15,16-tetraazahexacyclo[20.5.3.1^3,70.1^9,130.0^12,160.0^25,29]dotriaconta-3(32),4,6,9(31),10,12,14,22,24,29-decaen-8-yl]acetic acid] | 23.4 nM | 611 nM | –
Cc1ccc2cc1CN1Cc3c(ccc(c3Cl)OCCCCn3nnc4c(C)c(ccc43)C2CC(=O)O)OS1(=O)=O (single isomer, unassigned) [Example 66b, [30-Chloro-4,31-dimethyl-27,27-dioxo-21,26-dioxa-27λ^6-thia-1,14,15,16-tetraazahexacyclo[20.5.3.1^3,70.1^9,130.0^12,160.0^25,29]dotriaconta-3(32),4,6,9(31),10,12,14,22,24,29-decaen-8-yl]acetic acid] | 0.833 nM | – | 17.9 nM
COc1ccc2cc1[C@@H](C)N1Cc3cc(ccc3OS1(=O)=O)OCCCCn1nnc3c(C)c(ccc31)[C@H]2CC(=O)O [Example 28b, [(2R,8S)-4-methoxy-2,31-dimethyl-27,27-dioxo-21,26-dioxa-27λ^6-thia-1,14,15,16-tetraazahexacyclo[20.5.3.1^3,70.1^9,130.0^12,160.0^25,29]dotriaconta-3(32),4,6,9(31),10,12,14,22,24,29-decaen-8-yl]acetic acid] | 3.25 nM | 15.3 nM | –
Cc1ccc2cc1[C@@H](C)N1Cc3cc(ccc3OS1(=O)=O)OCCCCCn1nnc3c(C)c(ccc31)[C@H]2CC(=O)O [Example 20a, [(2R,8S)-2,4,32-Trimethyl-28,28-dioxo-22,27-dioxa-28λ^6-thia-1,14,15,16-tetraazahexacyclo[21.5.3.1^3,70.1^9,130.0^12,160.0^26,30]tritriaconta-3(33),4,6,9(32),10,12,14,23,25,30-decaen-8-yl]acetic acid] | 0.549 nM | 1.99 nM | –
COCCC1CCOc2ccc3c(c2)CN([C@H](C)c2cc(ccc2C)[C@@H](CC(=O)O)c2ccc4c(nnn4C1)c2C)S(=O)(=O)O3 (single isomer, unassigned) [Example 24c] | 5 nM | 60 nM | –
Cc1ccc2cc1CN1Cc3cc(ccc3OS1(=O)=O)OCCCCCCn1nnc3c(C)c(ccc31)C2CC(=O)O (single isomer, unassigned) [Example 11a, [4,33-Dimethyl-29,29-dioxo-23,28-dioxa-29λ^6-thia-1,14,15,16-tetraazahexacyclo[22.5.3.1^3,70.1^9,130.0^12,160.0^27,31]tetratriaconta-3(34),4,6,9(33),10,12,14,24,26,31-decaen-8-yl]acetic acid] | 2.42 nM | – | 109 nM
Cc1ccc2cc1[C@@H](C)N1Cc3cc(ccc3OS1(=O)=O)OCCCOCCn1nnc3c(C)c(ccc31)[C@H]2CC(=O)O [Example 27b, [(2R,8S)-2,4,33-trimethyl-29,29-dioxo-19,23,28-trioxa-29λ^6-thia-1,14,15,16-tetraazahexacyclo[22.5.3.1^3,70.1^9,130.0^12,160.0^27,31]tetratriaconta-3(34),4,6,9(33),10,12,14,24,26,31-decaen-8-yl]acetic acid] | 3.56 nM | 16.2 nM | –
